≈ marks a conversion by molar mass, not a printed value. Like-named read-outs stand apart in the source and are kept apart here.
How the values were obtained:
[1] = test system: C. albicans ATCC 64124(R) (strain B); experiment: MIC determination, in vitro antifungal assay (CLSI M27-A3); format: cell-based, Candida albicans; conditions: strain B, MIC-0, 48 h at 35° C.
In short: (§1)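 Broth microdilution per CLSI M27-A3 with minor modifications, in RPMI 1640 buffered to pH 7.0 with 0.165 M MOPS at 35° C. Overnight YPD cultures were diluted to 2-4×10^3 CFU/mL in RPMI; DMSO kept <1.25%. MIC taken as lowest concentration giving complete inhibition (MIC-0).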

[2] = test system: C. albicans ATCC 90819(R) (strain D); experiment: as above; format: cell-based, Candida albicans; conditions: MIC-0, 48 h at 35° C.
In short: as §1

[3] = test system: C. albicans ATCC MYA-2310(S) (strain E); experiment: as above; format: cell-based, Candida albicans; conditions: MIC-0, 48 h at 35° C.
In short: as §1

[4] = test system: C. albicans ATCC MYA-1237(R) (strain F); experiment: as above; format: cell-based, Candida albicans; conditions: MIC-0, 48 h at 35° C.
In short: as §1

[5] = test system: Candida glabrata ATCC 2001 (strain H); experiment: as above; format: cell-based; conditions: MIC-0, 48 h at 35° C.
In short: (§2)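 Broth microdilution per CLSI M27-A3 in RPMI 1640 buffered to pH 7.0 with 0.165 M MOPS at 35° C. Overnight YPD cultures were adjusted to OD600 0.12 (˜1×10^6 CFU/mL), then diluted to an inoculum of 2-4×10^3 CFU/mL in RPMI 1640; final DMSO stayed below 1.25%.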

[6] = test system: Candida krusei ATCC 6258 (strain I); experiment: as above; format: cell-based; conditions: MIC-0, 48 h at 35° C.
In short: as §2

[7] = test system: murine red blood cells (mRBCs); conditions: for Percentage of hemolysis (±SDEV): mouse, 60 min
Experimental: Thus, the hemolytic activity for these bishydrazones was investigated against murine red blood cells (mRBCs).
Murine red blood cells (mRBCs) were prepared by suspending 1 mL of murine blood in 3 mL of PBS prior to centrifugation at 1,000 rpm for 5 min. The mRBCs were washed four times in PBS and resuspended in the same buffer to a final concentration of 10^7 mRBC/mL. […] The tubes were incubated at 37° C. for 60 min. […] Eppendorf tubes containing 200 μL of ddH2O and 2 μL of 1% v/v Triton™ X-100 served as negative (blank) and positive controls, respectively. The percentage of hemolysis was calculated using the following equation: % hemolysis=[(absorbance of sample)−(absorbance of blank)]×100/(absorbance of positive control).

[8] = Candida albicans, ATCC64124, 48 h, read-out: MIC
[9] = Candida albicans, ATCC90819, 48 h, read-out: MIC
[10] = Candida albicans, 48 h, read-out: MIC
[11] = Nakaseomyces glabratus, ATCC2001, 48 h, read-out: MIC
[12] = Pichia kudriavzevii, ATCC6258, 48 h, read-out: MIC

MIC [1, 8] [µg/mL] | MIC [2, 9] [µg/mL] | MIC [3, 10] [µg/mL] | MIC [4, 10] [µg/mL] | MIC [5, 11] [µg/mL] | MIC [6] [µg/mL] | MIC [6, 12] [µg/mL] | MIC [1] [µg/mL] | MIC [2] [µg/mL] | MIC [3] [µg/mL] | MIC [4] [µg/mL] | MIC [5] [µg/mL] | Compound | hemolytic activity (in words) [7] | Percentage of hemolysis (±SDEV) ([7]; 0.975 μg/mL) [%] | Percentage of hemolysis (±SDEV) ([7]; 1.95 μg/mL) [%] | Percentage of hemolysis (±SDEV) ([7]; 3.9 μg/mL) [%] | Percentage of hemolysis (±SDEV) ([7]; 7.8 μg/mL) [%] | Percentage of hemolysis (±SDEV) ([7]; 15.6 μg/mL) [%] | Percentage of hemolysis (±SDEV) ([7]; 31.3 μg/mL) [%] | Percentage of hemolysis (±SDEV) ([7]; 62.5 μg/mL) [%]
7.8 to 15.6 (≈ 18.3 to 36.6 µM) | 31.3 (≈ 73.4 µM) | 7.8 to 15.6 (≈ 18.3 to 36.6 µM) | 7.8 to 15.6 (≈ 18.3 to 36.6 µM) | 7.8 to 15.6 (≈ 18.3 to 36.6 µM) | 1.95 (≈ 4.57 µM) | 1.95 (≈ 4.57 µM) | 15.6 (≈ 36.6 µM) | – | 15.6 (≈ 36.6 µM) | 7.8 (≈ 18.3 µM) | 15.6 (≈ 36.6 µM) | Fc1ccc(N/N=C/c2ccc(-c3ccc(/C=N/Nc4ccc(F)cc4)cc3)cc2)cc1 [Compound 17b] | – | 0 | 1.1 ± 1.5 | 0.7 ± 1.1 | 3.2 ± 3.0 | 9.0 ± 8.5 | 9.6 ± 6.7 | 28.3 ± 4.1
7.8 (≈ 16.9 µM) | 15.6 (≈ 33.7 µM) | 15.6 (≈ 33.7 µM) | 7.8 (≈ 16.9 µM) | 15.6 (≈ 33.7 µM) | 1.95 (≈ 4.22 µM) | 1.95 to 3.9 (≈ 4.22 to 8.43 µM) | – | – | – | – | – | Fc1ccc(N/N=C/c2ccc(-c3cccc(/C=N/Nc4ccc(F)cc4F)c3)cc2)c(F)c1 [Compound 20a] | lack of hemolytic activity | 0 | 4.5 ± 2.3 | 4.2 ± 2.8 | 8.6 ± 1.6 | 14.6 ± 1.6 | 14.6 ± 0.7 | –
1.95 to 3.9 (≈ 4.29 to 8.58 µM) | 7.8 (≈ 17.2 µM) | 1.95 to 3.9 (≈ 4.29 to 8.58 µM) | 7.8 (≈ 17.2 µM) | 15.6 (≈ 34.3 µM) | 1.95 (≈ 4.29 µM) | 1.95 to 3.9 (≈ 4.29 to 8.58 µM) | 3.9 (≈ 8.58 µM) | – | 1.95 (≈ 4.29 µM) | – | – | C/C(=N\Nc1ccc(F)cc1)c1ccc(-c2ccc(/C(C)=N/Nc3ccc(F)cc3)cc2)cc1 [Compound 17c, 4,4′-bis((E)-1-(2-(4-fluorophenyl)hydrazono)ethyl)-1,1′-biphenyl] | – | 1.4 ± 1.1 | 2.6 ± 0.9 | 2.6 ± 2.7 | 5.9 ± 0.3 | 7.4 ± 1.1 | 9.5 ± 2.2 | 26.2 ± 7.7

Second part, the compound before the results:

Compound | MIC [1, 8] [µg/mL] | MIC [2, 9] [µg/mL] | MIC [3, 10] [µg/mL] | MIC [4, 10] [µg/mL] | MIC [5, 11] [µg/mL] | MIC [6] [µg/mL] | MIC [6, 12] [µg/mL] | MIC [1] [µg/mL] | MIC [2] [µg/mL] | MIC [3] [µg/mL] | MIC [4] [µg/mL] | MIC [5] [µg/mL] | hemolytic activity (in words) [7] | Percentage of hemolysis (±SDEV) ([7]; 0.975 μg/mL) [%] | Percentage of hemolysis (±SDEV) ([7]; 1.95 μg/mL) [%] | Percentage of hemolysis (±SDEV) ([7]; 3.9 μg/mL) [%] | Percentage of hemolysis (±SDEV) ([7]; 7.8 μg/mL) [%] | Percentage of hemolysis (±SDEV) ([7]; 15.6 μg/mL) [%] | Percentage of hemolysis (±SDEV) ([7]; 31.3 μg/mL) [%] | Percentage of hemolysis (±SDEV) ([7]; 62.5 μg/mL) [%]
C(=N\Nc1ccccc1)/c1ccc(-c2cccc(/C=N/Nc3ccccc3)c2)cc1 [Compound 7a] | 31.3 (≈ 80.2 µM) | 31.3 (≈ 80.2 µM) | 31.3 (≈ 80.2 µM) | 31.3 (≈ 80.2 µM) | > 31.3 | 7.8 (≈ 20 µM) | 7.8 to 15.6 (≈ 20 to 39.9 µM) | – | – | – | – | – | lack of hemolytic activity | 0 | 3.5 ± 3.3 | 1.5 ± 0.9 | 8.5 ± 5.1 | 14.1 ± 0.1 | 16.7 ± 0.9 | –
COc1ccc(N/N=C/c2ccc(-c3ccc(/C=N/Nc4ccc(OC)cc4)cc3)cc2)cc1 [Compound 15b] | 3.9 (≈ 8.66 µM) | 7.8 to 15.6 (≈ 17.3 to 34.6 µM) | 3.9 (≈ 8.66 µM) | 7.8 to 15.6 (≈ 17.3 to 34.6 µM) | 7.8 to 15.6 (≈ 17.3 to 34.6 µM) | 7.8 (≈ 17.3 µM) | 7.8 to 15.6 (≈ 17.3 to 34.6 µM) | 3.9 (≈ 8.66 µM) | 7.8 (≈ 17.3 µM) | 3.9 (≈ 8.66 µM) | 15.6 (≈ 34.6 µM) | 7.8 (≈ 17.3 µM) | lack of hemolytic activity | 1.6 ± 2.3 | 1.9 ± 0.3 | 2.8 ± 0.6 | 4.2 ± 3.1 | 6.7 ± 2.0 | 12.6 ± 4.7 | –
Fc1ccc(N/N=C/c2ccc(-c3cccc(/C=N/Nc4ccc(F)cc4)c3)cc2)cc1 [Compound 17a] | 15.6 (≈ 36.6 µM) | > 31.3 | 7.8 (≈ 18.3 µM) | 15.6 (≈ 36.6 µM) | > 31.3 | – | > 31.3 | – | – | – | – | – | – | 0 | 6.0 ± 2.1 | 4.3 ± 1.6 | 9.5 ± 3.3 | 9.9 ± 2.1 | 14.4 ± 0.9 | 26.1 ± 11.1
COc1ccc(N/N=C/c2ccc(-c3cccc(/C=N/Nc4ccc(OC)cc4)c3)cc2)cc1 [Compound 15a] | 15.6 (≈ 34.6 µM) | 1.95 to 3.9 (≈ 4.33 to 8.66 µM) | – | 1.95 to 3.9 (≈ 4.33 to 8.66 µM) | – | 3.9 (≈ 8.66 µM) | 1.95 to 3.9 (≈ 4.33 to 8.66 µM) | – | 3.9 (≈ 8.66 µM) | – | 3.9 (≈ 8.66 µM) | – | lack of hemolytic activity | 2.6 ± 3.4 | 4.5 ± 1.7 | 3.0 ± 1.6 | 2.6 ± 2.8 | 7.8 ± 3.3 | 9.6 ± 1.7 | –
Fc1cccc(N/N=C/c2ccc(-c3cccc(/C=N/Nc4cccc(F)c4)c3)cc2)c1 [Compound 12a] | > 31.3 | 7.8 to 15.6 (≈ 18.3 to 36.6 µM) | > 31.3 | 7.8 to 15.6 (≈ 18.3 to 36.6 µM) | > 31.3 | 1.95 (≈ 4.57 µM) | 1.95 to 3.9 (≈ 4.57 to 9.14 µM) | – | 15.6 (≈ 36.6 µM) | – | 15.6 (≈ 36.6 µM) | – | lack of hemolytic activity | 4.6 ± 2.5 | 0.6 ± 0.6 | 2.5 ± 2.7 | 7.9 ± 0.1 | – | 32.6 ± 9.6 | 39.5 ± 12.1

From patent US11851391B2, “Antifungal compounds and methods of forming the same” (University of Kentucky Research Foundation, priority 2018, dated 2023)
